# System: participants with SSc-RP
# Test: Scleroderma Health Assessment Questionnaire (SHAQ): disability indices and visual analog scales
# Assay type: in vivo, human
# How it was run: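 Participants with SSc-RP completed the SHAQ at screening and each in-clinic visit. Standard and alternative disability indices (eight categories, 0–3; standard adjusts for aids/assistance) plus Raynaud's VAS on interference over the past 7 days. Reported as absolute change from baseline to end of each dosing period.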
# [1] = Cilnidipine 20 mg, PP Population Part A, SSc patients
# [2] = Day 12, Cilnidipine 10 mg (N = 4), Patients with Diagnosis of SSc, PP Population Part A
# [3] = Day 12, Cilnidipine 20 mg (N = 4), Patients with Diagnosis of SSc, PP Population Part A
# [4] = Day 12, Modified ITT, Part A, dose Cilnidipine 10 mg, Tadalafil 5 mg, or 10 mg + 5 mg
# [5] = Day 12, Modified ITT, Part A, dose Cilnidipine 20 mg, or 20 mg + Tadalafil 5 mg
# [6] = Day 12, Pooled Cilnidipine 10 mg and Cilnidipine 10 mg + Tadalafil 5 mg (N = 9), PP Population Part A
# [7] = Day 12, Pooled Cilnidipine 10 mg and Cilnidipine 10 mg + Tadalafil 5 mg (N = 9), PP Population Part A, Subject 01-110 score excluded
# [8] = Day 12, Pooled Cilnidipine 20 mg and Cilnidipine 20 mg + Tadalafil 5 mg (N = 8), PP Population Part A
compound,measurement,setting,value
"COCCOC(=O)C1=C(C)NC(C)=C(C(=O)OC/C=C/c2ccccc2)C1c1cccc([N+](=O)[O-])c1 (stereo not drawn) [Cilnidipine, cilnidipine]","SHAQ Visual Analogue Scale - Finger Ulcers, In-Clinic Visit (Day 12), Mean",[1],0.650
same,"SHAQ Visual Analogue Scale - Finger Ulcers, In-Clinic Visit (Day 12), Median",[1],0.350
same,"SHAQ Visual Analogue Scale - Intestinal Problems, In-Clinic Visit (Day 12), Mean",[1],0.850
same,"SHAQ Visual Analogue Scale - Intestinal Problems, In-Clinic Visit (Day 12), Median",[1],0.650
same,"SHAQ Visual Analogue Scale - Overall Disease Severity, In-Clinic Visit (Day 12), Mean",[1],1.125
same,"SHAQ Visual Analogue Scale - Overall Disease Severity, In-Clinic Visit (Day 12), Median",[1],1.300
same,"SHAQ Visual Analogue Scale - Pain, In-Clinic Visit (Day 12), Mean",[1],1.875
same,"SHAQ Visual Analogue Scale - Pain, In-Clinic Visit (Day 12), Median",[1],1.400
same,"SHAQ Visual Analogue Scale - Raynaud's, In-Clinic Visit (Day 12), Mean",[1],1.875
same,"SHAQ Visual Analogue Scale - Raynaud's, In-Clinic Visit (Day 12), Median",[1],1.250
same,"SHAQ Alternative Disability Index, Change from Baseline, Mean",[2],0.063
same,"SHAQ Alternative Disability Index, Change from Baseline, Median",[2],0.000
same,"SHAQ Alternative Disability Index, Percent Change from Baseline, Mean",[2],15.87%
same,"SHAQ Alternative Disability Index, Percent Change from Baseline, Median",[2],15.87%
same,"SHAQ Standard Disability Index, Change from Baseline, Mean",[2],0.000
same,"SHAQ Standard Disability Index, Change from Baseline, Median",[2],0.000
same,"SHAQ Standard Disability Index, Percent Change from Baseline, Mean",[2],0.00%
same,"SHAQ Standard Disability Index, Percent Change from Baseline, Median",[2],0.00%
same,"SHAQ Alternative Disability Index, Change from Baseline, Mean",[3],0.000
same,"SHAQ Alternative Disability Index, Change from Baseline, Median",[3],−0.063
same,"SHAQ Alternative Disability Index, Percent Change from Baseline, Mean",[3],5.56%
same,"SHAQ Alternative Disability Index, Percent Change from Baseline, Median",[3],−33.33%
same,"SHAQ Standard Disability Index, Change from Baseline, Mean",[3],−0.063
same,"SHAQ Standard Disability Index, Change from Baseline, Median",[3],−0.063
same,"SHAQ Standard Disability Index, Percent Change from Baseline, Mean",[3],−26.67%
same,"SHAQ Standard Disability Index, Percent Change from Baseline, Median",[3],−33.33%
same,"SHAQ Alternative Disability Index, Change from Baseline, Mean",[4],0.063
same,"SHAQ Alternative Disability Index, Change from Baseline, Median",[4],0.000
same,"SHAQ Alternative Disability Index, Percent Change from Baseline, Mean",[4],15.87%
same,"SHAQ Alternative Disability Index, Percent Change from Baseline, Median",[4],15.87%
same,"SHAQ Finger Ulcers, Change from Baseline, Mean",[4],−0.425
same,"SHAQ Finger Ulcers, Change from Baseline, Median",[4],−0.350
same,"SHAQ Finger Ulcers, Percent Change from Baseline, Mean",[4],−69.44%
same,"SHAQ Finger Ulcers, Percent Change from Baseline, Median",[4],−69.44%
same,"SHAQ Standard Disability Index, Change from Baseline, Mean",[4],0.0
same,"SHAQ Standard Disability Index, Change from Baseline, Median",[4],0.000
same,"SHAQ Standard Disability Index, Percent Change from Baseline, Mean",[4],0.0%
same,"SHAQ Standard Disability Index, Percent Change from Baseline, Median",[4],0.00%
same,"SHAQ Visual Analog Scale-Breathing Problems, Change from Baseline, Mean",[4],−0.300
same,"SHAQ Visual Analog Scale-Breathing Problems, Change from Baseline, Median",[4],0.000
same,"SHAQ Visual Analog Scale-Breathing Problems, Percent Change from Baseline, Mean",[4],−16.00%
same,"SHAQ Visual Analog Scale-Breathing Problems, Percent Change from Baseline, Median",[4],−16.00%
same,"SHAQ Visual Analog Scale-Intestinal Problems, Change from Baseline, Mean",[4],−1.875
same,"SHAQ Visual Analog Scale-Intestinal Problems, Change from Baseline, Median",[4],−1.550
same,"SHAQ Visual Analog Scale-Intestinal Problems, Percent Change from Baseline, Mean",[4],−77.37%
same,"SHAQ Visual Analog Scale-Intestinal Problems, Percent Change from Baseline, Median",[4],−88.00%
same,"SHAQ Visual Analog Scale-Pain, Change from Baseline, Mean",[4],−0.100
same,"SHAQ Visual Analog Scale-Pain, Change from Baseline, Median",[4],0.000
same,"SHAQ Visual Analog Scale-Pain, Percent Change from Baseline, Mean",[4],−9.88%
same,"SHAQ Visual Analog Scale-Pain, Percent Change from Baseline, Median",[4],0.00%
same,"SHAQ Visual Analog Scale-Raynaud's, Change from Baseline, Mean",[4],0.325
same,"SHAQ Visual Analog Scale-Raynaud's, Change from Baseline, Median",[4],0.350
same,"SHAQ Visual Analog Scale-Raynaud's, Percent Change from Baseline, Mean",[4],11.36%
same,"SHAQ Visual Analog Scale-Raynaud's, Percent Change from Baseline, Median",[4],−2.27%
same,"SHAQ Alternative Disability Index, Change from Baseline, Mean",[5],−0.083
same,"SHAQ Alternative Disability Index, Change from Baseline, Median",[5],−0.125
same,"SHAQ Alternative Disability Index, Percent Change from Baseline, Mean",[5],−41.67%
same,"SHAQ Alternative Disability Index, Percent Change from Baseline, Median",[5],−41.67%
same,"SHAQ Finger Ulcers, Change from Baseline, Mean",[5],−0.933
same,"SHAQ Finger Ulcers, Change from Baseline, Median",[5],0.000
same,"SHAQ Finger Ulcers, Percent Change from Baseline, Mean",[5],35.29%
same,"SHAQ Finger Ulcers, Percent Change from Baseline, Median",[5],35.29%
same,"SHAQ Standard Disability Index, Change from Baseline, Mean",[5],−0.125
same,"SHAQ Standard Disability Index, Change from Baseline, Median",[5],−0.125
same,"SHAQ Standard Disability Index, Percent Change from Baseline, Mean",[5],−50.00%
same,"SHAQ Standard Disability Index, Percent Change from Baseline, Median",[5],−50.00%
same,"SHAQ Visual Analog Scale-Breathing Problems, Change from Baseline, Mean",[5],−0.833
same,"SHAQ Visual Analog Scale-Breathing Problems, Change from Baseline, Median",[5],−0.800
same,"SHAQ Visual Analog Scale-Breathing Problems, Percent Change from Baseline, Mean",[5],−5.56%
same,"SHAQ Visual Analog Scale-Breathing Problems, Percent Change from Baseline, Median",[5],−66.67%
same,"SHAQ Visual Analog Scale-Intestinal Problems, Change from Baseline, Mean",[5],0.300
same,"SHAQ Visual Analog Scale-Intestinal Problems, Change from Baseline, Median",[5],0.300
same,"SHAQ Visual Analog Scale-Intestinal Problems, Percent Change from Baseline, Mean",[5],35.00%
same,"SHAQ Visual Analog Scale-Intestinal Problems, Percent Change from Baseline, Median",[5],35.00%
same,"SHAQ Visual Analog Scale-Pain, Change from Baseline, Mean",[5],−1.100
same,"SHAQ Visual Analog Scale-Pain, Change from Baseline, Median",[5],−0.800
same,"SHAQ Visual Analog Scale-Pain, Percent Change from Baseline, Mean",[5],−52.56%
same,"SHAQ Visual Analog Scale-Pain, Percent Change from Baseline, Median",[5],−53.33%
same,"SHAQ Visual Analog Scale-Raynaud's, Change from Baseline, Mean",[5],−1.267
same,"SHAQ Visual Analog Scale-Raynaud's, Change from Baseline, Median",[5],−1.100
same,"SHAQ Visual Analog Scale-Raynaud's, Percent Change from Baseline, Mean",[5],−48.63%
same,"SHAQ Visual Analog Scale-Raynaud's, Percent Change from Baseline, Median",[5],−44.00%
same,"SHAQ Visual Analogue Scale - Finger Ulcers, Change from Baseline, Mean",[6],−0.267
same,"SHAQ Visual Analogue Scale - Finger Ulcers, Change from Baseline, Median",[6],−0.100
same,"SHAQ Visual Analogue Scale - Finger Ulcers, Percent Change from Baseline, Mean",[6],−46.06%
same,"SHAQ Visual Analogue Scale - Finger Ulcers, Percent Change from Baseline, Median",[6],−31.94%
same,"SHAQ Visual Analogue Scale - Intestinal Problems, Change from Baseline, Mean",[6],−1.228
same,"SHAQ Visual Analogue Scale - Intestinal Problems, Change from Baseline, Median",[6],−0.250
same,"SHAQ Visual Analogue Scale - Intestinal Problems, Percent Change from Baseline, Mean",[6],−27.93%
same,"SHAQ Visual Analogue Scale - Intestinal Problems, Percent Change from Baseline, Median",[6],−54.13%
same,"SHAQ Visual Analogue Scale - Overall Disease Severity, Change from Baseline, Mean",[6],−0.606
same,"SHAQ Visual Analogue Scale - Overall Disease Severity, Change from Baseline, Median",[6],−0.700
same,"SHAQ Visual Analogue Scale - Overall Disease Severity, Percent Change from Baseline, Mean",[6],−24.68%
same,"SHAQ Visual Analogue Scale - Overall Disease Severity, Percent Change from Baseline, Median",[6],−30.93%
same,"SHAQ Visual Analogue Scale - Pain, Change from Baseline, Mean",[6],−0.633
same,"SHAQ Visual Analogue Scale - Pain, Change from Baseline, Median",[6],−0.700
same,"SHAQ Visual Analogue Scale - Pain, Percent Change from Baseline, Mean",[6],−20.07%
same,"SHAQ Visual Analogue Scale - Pain, Percent Change from Baseline, Median",[6],−21.87%
same,"SHAQ Visual Analogue Scale - Raynaud's, Change from Baseline, Mean",[6],−0.414
same,"SHAQ Visual Analogue Scale - Raynaud's, Change from Baseline, Median",[6],−0.100
same,"SHAQ Visual Analogue Scale - Raynaud's, Percent Change from Baseline, Mean",[6],−9.97%
same,"SHAQ Visual Analogue Scale - Raynaud's, Percent Change from Baseline, Median",[6],−4.39%
same,"SHAQ Visual Analogue Scale - Breathing Problems, Change from Baseline, Mean",[7],−0.175
same,"SHAQ Visual Analogue Scale - Breathing Problems, Change from Baseline, Median",[7],0.000
same,"SHAQ Visual Analogue Scale - Breathing Problems, Percent Change from Baseline, Mean",[7],−26.05%
same,"SHAQ Visual Analogue Scale - Breathing Problems, Percent Change from Baseline, Median",[7],−21.33%
same,"SHAQ Visual Analogue Scale - Breathing Problems, Change from Baseline, Mean",[8],0.225
same,"SHAQ Visual Analogue Scale - Breathing Problems, Change from Baseline, Median",[8],0.150
same,"SHAQ Visual Analogue Scale - Breathing Problems, Percent Change from Baseline, Mean",[8],93.65%
same,"SHAQ Visual Analogue Scale - Breathing Problems, Percent Change from Baseline, Median",[8],31.58%
same,"SHAQ Visual Analogue Scale - Finger Ulcers, Change from Baseline, Mean",[8],−0.950
same,"SHAQ Visual Analogue Scale - Finger Ulcers, Change from Baseline, Median",[8],−0.050
same,"SHAQ Visual Analogue Scale - Finger Ulcers, Percent Change from Baseline, Mean",[8],−15.69%
same,"SHAQ Visual Analogue Scale - Finger Ulcers, Percent Change from Baseline, Median",[8],−48.04%
same,"SHAQ Visual Analogue Scale - Intestinal Problems, Change from Baseline, Mean",[8],0.200
same,"SHAQ Visual Analogue Scale - Intestinal Problems, Change from Baseline, Median",[8],0.000
same,"SHAQ Visual Analogue Scale - Intestinal Problems, Percent Change from Baseline, Mean",[8],−6.27%
same,"SHAQ Visual Analogue Scale - Intestinal Problems, Percent Change from Baseline, Median",[8],−29.44%
same,"SHAQ Visual Analogue Scale - Overall Disease Severity, Change from Baseline, Mean",[8],−1.425
same,"SHAQ Visual Analogue Scale - Overall Disease Severity, Change from Baseline, Median",[8],−1.550
same,"SHAQ Visual Analogue Scale - Overall Disease Severity, Percent Change from Baseline, Mean",[8],−47.98%
same,"SHAQ Visual Analogue Scale - Overall Disease Severity, Percent Change from Baseline, Median",[8],−48.23%
same,"SHAQ Visual Analogue Scale - Pain, Change from Baseline, Mean",[8],−0.500

# From patent US20240358693A1, “METHODS OF TREATING PAIN” (Aisa Pharma, Inc., priority 2023, published 2024)
